According to patent US7053116B2, “Methods for protecting cells from amyloid toxicity and for inhibiting amyloid protein production” (The Salk Institute for Biological Studies, priority 2000, dated 2006):
Where two headings read alike, the source gives them in different places. No end group written: not given here.

What was measured:
[1] = system: B12 cells; conditions: for ability to induce MTT formazan exocytosis (in words): peptide preparations
Protocol: MTT reduction and MTT formazan exocytosis MTT reduction by cultured cells was performed in 96-well microtiter plates containing 100 μl of medium per well. Cells (about 10^4 cells per well) were plated in Dulbecco's modified Eagles's medium (DMEM) supplemented with 5% dialyzed fetal calf serum and incubated overnight before drug treatment. MTT reduction was started by adding 10 μl per well of a 2.5 mg/ml MTT stock in phosphate-buffered saline (PBS) and terminated by adding 100 μl of a solubilization solution containing 50% N,N′-dimethylformamide and 20% sodium dodecyl sulfate (SDS; pH 4.8). […] MTT reduction is determined the next day by determining absorbance at 570 nm with an automatic microtiter plate reader, using 630 nm as the reference wavelength.
MTT reduction by living cells is initially observed as intracellular formazan granules, and needle-like formazan crystals begin to appear on the cell surface after about 30 min of MTT reduction.
Amyloid peptide-induced MTT formazan exocytosis was determined with B12 cells, as described herein. B12 cells on 35 mm dishes were treated with 10 μM for 16 hr at 37° C., followed by 30 min MTT reduction. The percentage of cells exocytosing MTT formazan with morphology similar to that induced by Aβ was then determined.

[2] = system: Hippocampal neurons; test: Hippocampal neuronal cultures, assessment of neuronal viability
Protocol: (§1) The cells were suspended in a serum-free medium and plated on polylysine-coated 24-well tissue culture plates (1×10^6 cells/ml). The serum-free medium used is a modified minimal essential medium containing 30 mM glucose, 2 mM glutamine, 1 mM pyruvate, penicillin (100 U/ml), streptomycin (100 μg/ml), and N1supplements (Sigma). After 3 days in culture, the neurons acquire long and extensively branched neurites. Half of the medium in each dish was then replaced with fresh medium, and test reagents (20 μM peptide solutions) were added. Neuron survival was assessed 48 hours after treatment. Neurons were judged to be viable by the intactness of their neurites and soma (absence of vacuoles and the ability to exclude trypan blue). Five fields (˜80 neurons/field) were scored in each culture. The number of viable neurons in untreated cultures was designated as 100% survival.

[3] = system: B12 cells; conditions: cited from earlier work; for enhancement of MTT formazan exocytosis: B12 cells, Liu and Schubert 1997; for induction of MTT formazan exocytosis by protein fibrils: fibrils formed under denaturing conditions, Liu and Schubert 1998
[4] = system: Hippocampal neurons
Protocol: as §1

[5] = system: astrocytes; test: Astrocyte activation indicated by morphological changes; type: cell-based, rat; conditions: peptide preparations
Protocol: The dissected cortices were dissociated enzymatically with trypsin and mechanically by passing through a fine pipette. The cells were cultured in α-MEM (Life Technologies, MD) containing 10% fetal bovine serum and antibiotics. After 11 days in culture, the primary cells were replated at a density of 10,000 cells/cm^2 and grown until confluent. At least 24 hr before treatment, the cells were washed twice with PBS and then incubated with serum-free α-MEM containing N2 supplements (Life Technologies, MD).

[6] = system: Primary astrocytes; test: Astrocyte culture, quantitation of secreted cytokines (ELISA); type: cell-based, rat; conditions: astrocyte conditioned media; 10 μM peptide for 12 hr; mean ±S.E.M.
Protocol: Astrocyte culture and quantitation of secreted cytokines Primary astrocytes were prepared from the cortices of 2-day-old Sprague-Dawley rat pups according the method of Levison and McCarthy (Culturing Nerve Cells in: G. Banker, and K. Goslin (eds.), MIT Press, Cambridge, Mass. 1991, pp. 309–336). The dissected cortices were dissociated enzymatically with trypsin and mechanically by passing through a fine pipette. The cells were cultured in α-MEM (Life Technologies, MD) containing 10% fetal bovine serum and antibiotics. After 11 days in culture, the primary cells were replated at a density of 10,000 cells/cm^2 and grown until confluent. At least 24 hr before treatment, the cells were washed twice with PBS and then incubated with serum-free α-MEM containing N2 supplements (Life Technologies, MD).
Cytokine Measurements For IL-1β and TNF-α measurements, 7.5×10^4 cells/well were plated in a 48-well tissue culture plate. After 48 hr of incubation in serum-free α-MEM containing N2 supplements, the cells were treated with 10 μM of various amyloid or non-amyloidogenic peptides for 12 hr. Conditioned media from duplicate wells for each sample were collected and stored at −80° C. until use. Cytokine levels in the conditioned media were determined by ELISA kits from R&D systems and performed according to the manufacturer's protocols.

[7] = system: Aβ-induced MTT formazan exocytosis; test: Blocking of Aβ-induced MTT formazan exocytosis by amyloid-binding agents; type: cell-based
Protocol: MTT formazan exocytosis is assessed by microscopic observation. The needle-like crystals on the surface of the cells incubated with MTT, which are easily visible under a light microscope, represent exocytosed MTT formazan (Liu et al. (1997) J. Neurochem. 69:581–593). The percentages of cells exocytosing MTT formazan were determined by counting 300 cells in multiple fields using the presence of needle-like formazan crystals on cell surface as an indicator of MTT formazan exocytosis. A cell is counted as exocytosing MTT formazan when several needle-like formazan crystals are clearly visible.
The involvement of β-sheeted amyloid fibrils in generating this phenomenon is supported by the observation that amyloid-binding agents such as Congo red block 90% of the Aβ-induced MTT formazan exocytosis. Under denaturing conditions, non-amyloidogenic proteins such as insulin and glucagon also form protein fibrils with the same cross β structure as that in amyloid fibrils (Glenner et al., J. Histochem. Cytochem. 22:1141–1158 (1974) and Burke et al. Biochem. 11:2435–2439 (1972)). […] Therefore, the ability to enhance cellular MTT formazan exocytosis is a common property of protein fibrils having a cross β-pleated sheet structure. […]

CC[C@H](C)[C@H](NC(=O)[C@H](C)NC(=O)CNC(=O)[C@H](Cc1ccccc1)NC(=O)[C@H](CC(N)=O)NC(=O)[C@H](CC(N)=O)NC(=O)[C@H](CO)NC(=O)[C@H](CO)NC(=O)[C@H](Cc1c[nH]cn1)NC(=O)[C@@H](NC(=O)[C@H](CC(C)C)NC(=O)[C@H](Cc1ccccc1)NC(=O)[C@H](CC(N)=O)NC(=O)[C@H](C)NC(=O)[C@H](CC(C)C)NC(=O)[C@H](CCCNC(=N)N)NC(=O)[C@H](CCC(N)=O)NC(=O)[C@@H](NC(=O)[C@H](C)NC(=O)[C@@H]1CSSC[C@H](NC(=O)[C@@H](N)CCCCN)C(=O)N[C@@H](CC(N)=O)C(=O)N[C@@H]([C@@H](C)O)C(=O)N[C@@H](C)C(=O)N[C@@H]([C@@H](C)O)C(=O)N1)[C@@H](C)O)C(C)C)C(=O)N[C@@H](CC(C)C)C(=O)N[C@@H](CO)C(=O)N[C@@H](CO)C(=O)N[C@H](C(=O)N[C@@H](CC(N)=O)C(=O)N[C@H](C(=O)NCC(=O)N[C@@H](CO)C(=O)N[C@@H](CC(N)=O)C(=O)N[C@H](C(=O)N[C@@H](Cc1ccc(O)cc1)C(N)=O)[C@@H](C)O)C(C)C)[C@@H](C)O [Human amylin]
MTT (%) ([1]; percentage of B12 cells exocytosing MTT formazan, 10 μM for 16 hr at 37° C., followed by 30 min MTT reduction, mean ±S.E.M.): 97 ± 1 %
neurotoxicity to rat hippocampal neurons (in words) ([2]; peptide preparations): kill rat hippocampal neurons
Viable Neurons (% of control) ([2]; rat hippocampal neurons, 20 μM peptide solutions, 48 hours after treatment, mean ±S.E.M.): 32 ± 7 % of control

Aβ17-40: nonfibrillogenic peptide (LVFFAEDVGSNKGAIIGLMVGGVV; Amyloid-beta protein 40; UniProt P05067 688-711, looked up, fragment)
enhancement of MTT formazan exocytosis [3]: do not enhance

CC(C)C[C@H](NC(=O)[C@H](CC(N)=O)NC(=O)[C@H](CC(N)=O)NC(=O)[C@H](CO)NC(=O)[C@H](CO)NC(=O)[C@H](CCCNC(=N)N)NC(=O)[C@@H](NC(=O)[C@H](CC(C)C)NC(=O)[C@H](Cc1ccccc1)NC(=O)[C@H](CC(N)=O)NC(=O)[C@H](C)NC(=O)[C@H](CC(C)C)NC(=O)[C@H](CCCNC(=N)N)NC(=O)[C@H](CCC(N)=O)NC(=O)[C@@H](NC(=O)[C@H](C)NC(=O)[C@@H]1CSSC[C@H](NC(=O)[C@@H](N)CCCCN)C(=O)N[C@@H](CC(N)=O)C(=O)N[C@@H]([C@@H](C)O)C(=O)N[C@@H](C)C(=O)N[C@@H]([C@@H](C)O)C(=O)N1)[C@@H](C)O)C(C)C)C(=O)NCC(=O)N1CCC[C@H]1C(=O)N[C@H](C(=O)N[C@@H](CC(C)C)C(=O)N1CCC[C@H]1C(=O)N1CCC[C@H]1C(=O)N[C@H](C(=O)N[C@@H](CC(N)=O)C(=O)N[C@H](C(=O)NCC(=O)N[C@@H](CO)C(=O)N[C@@H](CC(N)=O)C(=O)N[C@H](C(=O)N[C@@H](Cc1ccc(O)cc1)C(N)=O)[C@@H](C)O)C(C)C)[C@@H](C)O)C(C)C [Rat amylin]
ability to induce MTT formazan exocytosis (in words) [1]: not active
enhancement of MTT formazan exocytosis [3]: do not enhance
neurotoxicity to rat hippocampal neurons (in words) [4]: not active
astrocyte activation as indicated by the morphological changes of the astrocytes (in words) [5]: not active
IL-1β [6]: 46 ± 7 pg/mL
TNF-α [6]: 48 ± 8 pg/mL

Aβ1-28: nonfibrillogenic peptide
enhancement of MTT formazan exocytosis [3]: do not enhance

glucagon: non-amyloidogenic protein forming fibrils with cross β structure under denaturing conditions
induction of MTT formazan exocytosis by protein fibrils [3]: induce MTT formazan exocytosis

insulin: non-amyloidogenic protein forming fibrils with cross β structure under denaturing conditions
induction of MTT formazan exocytosis by protein fibrils [3]: induce MTT formazan exocytosis

GSNKGAIIGLM [Aβ25–35]
ability to induce MTT formazan exocytosis (in words) [1]: always active
enhancement of MTT formazan exocytosis [3]: dramatically enhance
IL-1β [6]: 754 ± 78 pg/mL
TNF-α [6]: 350 ± 46 pg/mL

Aβ1-40: amyloid beta 1-40, 40 amino acid form of amyloid beta peptide; lot not specified
ability to induce MTT formazan exocytosis (in words) [1]: variable among different manufacturer's lots
enhancement of MTT formazan exocytosis [3]: dramatically enhance

Nc1c(/N=N/c2ccc(-c3ccc(/N=N/c4cc(S(=O)(=O)O)c5ccccc5c4N)cc3)cc2)cc(S(=O)(=O)O)c2ccccc12 [Congo red]
block of the Aβ-induced MTT formazan exocytosis [7]: 90%
